Data reported in US9044015B2, “Heterocyclic compounds as pesticides” (Bayer CropScience AG, priority 2010, dated 2015).
Structures can show the parent of a compound that is named as a salt. Where two headings read alike, the source gives them in different places. Values belong to the molecule of their own block, whether it stands above or below them.

Columns and labels:
[1] = Determination of the log P values (formic acid method)
Procedure: 1) Description of Method for Determination of the log P Values (Formic Aid Method)
Eluents for determination in the acidic range (pH 3.4):
Eluent A: acetonitrile+1 ml of formic acid/liter. Eluent B: water+0.9 ml of formic acid/liter.
The lambda max values were determined in the maxima of the chromatographic signals using the UV spectra from 200 nm to 400 nm.

[2] = test system: Myzus persicae; experiment: Myzus test (spray treatment); type: in vivo; conditions: foliar, read-out: efficacy in % (aphids killed)
Procedure: Solvent 78 parts by weight of acetone • • 1.5 parts by weight of dimethylformamide
Emulsifier: 0.5 part by weight of alkylaryl polyglycol ether
To prepare an appropriate active ingredient preparation, 1 part by weight of active ingredient is mixed with the stated amounts of solvent and emulsifier, and the concentrate is diluted with emulsifier-containing water to the desired concentration.

[3] = reverse-phase C18 HPLC column, pH 3.4, logP (HCOOH), final compounds table, HPLC reverse-phase C18, acidic range pH 3.4, 55° C.
[4] = application rate 500 g/ha, sprayed Chinese cabbage leaf discs, all stages of green peach aphid
[5] = reverse-phase C18 HPLC column, pH 3.4, logP (HCOOH), intermediates tables, HPLC reverse-phase C18, acidic range pH 3.4, 55° C.
[6] = reverse-phase C18 HPLC column, pH 3.4, log P (HCOOH), preparation examples, HPLC-MS

chromatographic logP [1, 3]: 2.28
Compound: O=C(NS(=O)(=O)Cc1ccccc1)c1cccc(-c2cnn(-c3cncnc3)c2)n1 [Compound 34]
pest or weed control at 500 g/ha [2, 4]: 90%

chromatographic logP [1, 3]: 2.26
Compound: O=C(NS(=O)(=O)c1ccccc1)c1cccc(-c2cnn(-c3cccnc3)c2)n1 [Compound 32]
pest or weed control at 500 g/ha [2, 4]: 90%

chromatographic logP [1, 3]: 1.95
Compound: CS(=O)(=O)NC(=O)c1cccc(-c2cnc(-c3cncc(C#N)c3)s2)n1 [Compound 51]
pest or weed control at 500 g/ha [2, 4]: 100%

chromatographic logP [1, 3]: 1.9
Compound: CN(C)S(=O)(=O)NC(=O)c1cccc(-c2cnc(-c3cncnc3)s2)n1 [Compound 62]
pest or weed control at 500 g/ha [2, 4]: 80%

chromatographic logP ([1]; pH 3.4, logP (HCOOH)): 2.44
Compound: O=C(NS(=O)(=O)Cc1ccccc1)c1cccc(-c2cnn(-c3cccnc3)c2)n1 [Compound 35]
pest or weed control at 500 g/ha [2, 4]: 100%

chromatographic logP ([1]; pH 3.4, log P (HCOOH)): 1.26
chromatographic logP ([1]; pH 3.4, logP (HCOOH)): 1.26
Compound: CS(=O)(=O)Nc1cccc(-c2cnn(-c3cccnc3)c2)n1 [Compound 1, N-{6-[1-(Pyridin-3-yl)-1H-pyrazol-4-yl]pyridin-2-yl}methanesulphonamide]
pest or weed control at 500 g/ha [2, 4]: 80%

chromatographic logP ([1]; pH 3.4, logP (HCOOH)): 2.44
Compound: O=C(NS(=O)(=O)C1CC1)c1cccc(-c2cnc(-c3cncc(F)c3)s2)n1 [Compound 6]
pest or weed control at 500 g/ha [2, 4]: 100%

chromatographic logP ([1]; pH 3.4, log P (HCOOH)): 1.25
chromatographic logP ([1]; pH 3.4, logP (HCOOH)): 1.25
Compound: CS(=O)(=O)NC(=O)c1csc(-c2cnn(-c3cccnc3)c2)n1 [Compound 36, N-(Methylsulphonyl)-2-[1-(pyridin-3-yl)-1H-pyrazol-4-yl]-1,3-thiazole-4-carboxamide]
pest or weed control at 500 g/ha [2, 4]: 100%

chromatographic logP [1, 3]: 3.29
Compound: O=C(NS(=O)(=O)N1CCCCC1)c1cccc(-c2cnc(-c3cncc(F)c3)s2)n1 [Compound 54]
pest or weed control at 500 g/ha [2, 4]: 100%

chromatographic logP [1, 5]: 1.54
Compound: CCS(=O)(=O)NC(=O)c1cccc(Br)n1 [XII-5]

chromatographic logP [1, 3]: 1.48
Compound: CS(=O)(=O)NC(=O)c1cccc(-c2cnc(-c3cncnc3)s2)n1 [Compound 8]
pest or weed control at 500 g/ha [2, 4]: 100%

chromatographic logP ([1]; pH 3.4, logP (HCOOH)): 2.56
Compound: C#CCN(C(=O)c1cccc(-c2cnc(-c3cncc(F)c3)s2)n1)S(C)(=O)=O [Compound 68]
pest or weed control at 500 g/ha [2, 4]: 100%

chromatographic logP ([1]; pH 3.4, log P (HCOOH)): 3.37
Compound: CCOC(=O)C(=O)CC(=O)c1sc(-c2cncc(F)c2)nc1C [Ethyl 4-[2-(5-fluoropyridin-3-yl)-4-methyl-1,3-thiazol-5-yl]-2,4-dioxobutanoate]

chromatographic logP ([1]; pH 3.4, logP (HCOOH)): 2.14
Compound: O=C(NS(=O)(=O)C1CC1)c1cccc(-c2nnc(-c3cncc(F)c3)s2)n1 [Compound 71]
pest or weed control at 500 g/ha [2, 4]: 100%

chromatographic logP ([1]; pH 3.4, logP (HCOOH)): 1.16
Compound: CS(=O)(=O)NC(=O)c1nc(-c2cnn(-c3cccnc3)c2)cs1 [Compound 45]
pest or weed control at 500 g/ha [2, 4]: 90%

chromatographic logP [1, 5]: 1.44
Compound: NS(=O)(=O)c1cccc(-c2cnn(-c3cncc(F)c3)c2)n1 [XVII-2]

chromatographic logP ([1]; pH 3.4, logP (HCOOH)): 1.84
Compound: Cc1nc(-c2cncc(F)c2)sc1-c1cc(C(=O)NS(C)(=O)=O)nn1C [Compound 64]
pest or weed control at 500 g/ha [2, 4]: 100%

chromatographic logP [1, 5]: 1.7
Compound: O=C(NS(=O)(=O)C1CC1)c1cccc(Br)n1 [XII-7]

chromatographic logP [1, 3]: 1.72
Compound: CC(=O)NS(=O)(=O)c1cccc(-c2cnc(-c3cncc(F)c3)s2)n1 [Compound 67]
pest or weed control at 500 g/ha [2, 4]: 100%

chromatographic logP [1, 3]: 3.41
Compound: Cc1nc(Cl)sc1S(=O)(=O)NC(=O)c1cccc(-c2cnc(-c3cncc(F)c3)s2)n1 [Compound 59]
pest or weed control at 500 g/ha [2, 4]: 100%

chromatographic logP ([1]; pH 3.4, logP (HCOOH)): 2.36
Compound: CCN(CC)S(=O)(=O)NC(=O)c1cccc(-c2cnn(-c3cncnc3)c2)n1 [Compound 38]
pest or weed control at 500 g/ha [2, 4]: 90%

chromatographic logP ([1]; pH 3.4, logP (HCOOH)): 1.48
Compound: CS(=O)(=O)NC(=O)c1cccc(-c2cnn(-c3cccnc3)c2)n1 [Compound 24]
pest or weed control at 500 g/ha [2, 4]: 100%

chromatographic logP [1, 6]: 2.04
chromatographic logP [1, 3]: 2.04
Compound: Cc1nc(-c2cncc(F)c2)sc1-c1cc(C(=O)NS(C)(=O)=O)n(C)n1 [Compound 63, 3-[2-(5-Fluoropyridin-3-yl)-4-methyl-1,3-thiazol-5-yl]-1-methyl-N-(methylsulphonyl)-1H-pyrazole-5-carboxamide]
pest or weed control at 500 g/ha [2, 4]: 80%

chromatographic logP ([1]; pH 3.4, log P (HCOOH)): 2.19
Compound: CC1(C)OB(c2cnn(-c3cccnc3)c2)OC1(C)C [3-[4-(4,4,5,5-Tetramethyl-[1,3,2]dioxaborolan-2-yl)pyrazol-1-yl]pyridine]

chromatographic logP [1, 3]: 2.61
Compound: CC(C)S(=O)(=O)NC(=O)c1cccc(-c2cnc(-c3cncc(F)c3)s2)n1 [Compound 20]
pest or weed control at 500 g/ha [2, 4]: 100%

chromatographic logP ([1]; pH 3.4, logP (HCOOH)): 2.01
Compound: CN(C)S(=O)(=O)NC(=O)c1cccc(-c2cnc(-c3cccnc3)s2)n1 [Compound 66]
pest or weed control at 500 g/ha [2, 4]: 100%

chromatographic logP ([1]; pH 3.4, logP (HCOOH)): 2.15
Compound: CS(=O)(=O)N(c1cccc(-c2cnn(-c3cncc(F)c3)c2)n1)S(C)(=O)=O [Compound 14]
pest or weed control at 500 g/ha [2, 4]: 90%

chromatographic logP ([1]; pH 3.4, logP (HCOOH)): 1.38
Compound: CS(=O)(=O)NC(=O)c1cccc(-c2cnn(-c3cncnc3)c2)n1 [Compound 22]
pest or weed control at 500 g/ha [2, 4]: 100%

chromatographic logP [1, 3]: 2.19
Compound: COCCS(=O)(=O)NC(=O)c1cccc(-c2cnc(-c3cncc(F)c3)s2)n1 [Compound 55]
pest or weed control at 500 g/ha [2, 4]: 100%

chromatographic logP ([1]; pH 3.4, logP (HCOOH)): 1.66
Compound: CS(=O)(=O)NC(=O)c1csc(-c2cnn(-c3cncc(F)c3)c2)n1 [Compound 37]
pest or weed control at 500 g/ha [2, 4]: 90%

Compound: N=C(N)c1cccc(-c2cnc(-c3cccnc3)s2)n1 [Compound 48]
pest or weed control at 500 g/ha ([2]; in Brassica rapa): 90%

chromatographic logP [1, 6]: 0.99
chromatographic logP [1, 5]: 0.99
Compound: NS(=O)(=O)c1cccc(-c2cnn(-c3cccnc3)c2)n1 [XVII-1, 6-[1-(pyridin-3-yl)-1H-pyrazol-4-yl]pyridine-2-sulphonamide]

chromatographic logP [1, 6]: 1.48
chromatographic logP [1, 5]: 1.51
Compound: Fc1cncc(-c2nccs2)c1 [XIII-1, 3-Fluoro-5-(1,3-thiazol-2-yl)pyridine]

chromatographic logP [1, 5]: 2.32
Compound: O=C(NS(=O)(=O)c1ccccc1)c1cccc(Br)n1 [XII-6]

chromatographic logP [1, 5]: 0.69
Compound: c1ncc(-c2nccs2)cn1 [XIII-3]

chromatographic logP [1, 5]: 1.82
Compound: CN(C)S(=O)(=O)NC(=O)c1cccc(Br)n1 [XII-2]

chromatographic logP [1, 6]: 0.63
chromatographic logP [1, 5]: 0.63
Compound: CS(=O)(=O)NC(=O)c1nc(Br)cs1 [XVI-1, 4-Bromo-N-(methylsulphonyl)-1,3-thiazole-2-carboxamide]

chromatographic logP [1, 6]: 1.72
Compound: O=C(O)c1cccc(-c2cnc(-c3cncc(F)c3)s2)n1 [6-[2-(5-Fluoropyridin-3-yl)-1,3-thiazol-5-yl]pyridine-2-carboxylic acid]

chromatographic logP [1, 6]: 1.56
Compound: Brc1cnn(-c2cccnc2)c1 [3-(4-Bromopyrazol-1-yl)pyridine]

chromatographic logP [1, 6]: 0.83
chromatographic logP [1, 5]: 0.82
Compound: CS(=O)(=O)NC(=O)c1csc(Br)n1 [XV-1, 2-Bromo-N-(methylsulphonyl)-1,3-thiazole-4-carboxamide]

chromatographic logP [1, 6]: 1.21
chromatographic logP [1, 5]: 1.28
Compound: CS(=O)(=O)NC(=O)c1cccc(Br)n1 [XII-4, 6-Bromo-N-(methylsulphonyl)pyridine-2-carboxamide]

chromatographic logP [1, 5]: 1.15
Compound: CS(=O)(=O)NC(=O)c1cccc(Cl)n1 [XII-3]

chromatographic logP [1, 6]: 0.91
Compound: CS(=O)(=O)NC(=O)c1cccc(-c2cn[nH]c2)n1 [N-(Methylsulphonyl)-6-(1H-pyrazol-4-yl)pyridine-2-carboxamide]

chromatographic logP [1, 5]: 1.94
Compound: Clc1cncc(-c2nccs2)c1 [XIII-2]

chromatographic logP [1, 5]: 1.34
Compound: N#Cc1cncc(-c2nccs2)c1 [XIII-4]

chromatographic logP ([1]; pH 3.4, logP (HCOOH)): 0.89
Compound: NS(=O)(=O)c1cccc(-c2cnn(-c3cncnc3)c2)n1 [XVII-3]

chromatographic logP [1, 6]: 0.3
Compound: Nc1cccc(-c2cnn(-c3cccnc3)c2)n1 [6-[1-(Pyridin-3-yl)-1H-pyrazol-4-yl]pyridine-2-amine]

chromatographic logP [1, 6]: 2.05
Compound: Cc1nc(-c2cncc(F)c2)sc1-c1cc(C(=O)O)n(C)n1 [3-[2-(5-Fluoropyridin-3-yl)-4-methyl-1,3-thiazol-5-yl]-1-methyl-1H-pyrazole-5-carboxylic acid]

chromatographic logP [1, 6]: 1.98
Compound: CS(=O)(=O)NC(=O)c1cccc(-c2cnn(-c3cncc(F)c3)c2)n1 [Compound 4, 6-[1-(5-Fluoropyridin-3-yl)-1H-pyrazol-4-yl]-N-(methylsulphonyl)pyridine-2-carboxamide]

chromatographic logP [1, 6]: 0.71
Compound: N=C(N)c1cccc(-c2cnc(-c3cncc(F)c3)s2)n1 [Compound 79, 6-[2-(5-Fluoropyridin-3-yl)-1,3-thiazol-5-yl]pyridine-2-carboxamide amide hydrochloride (1:1)]

chromatographic logP [1, 6]: 0.95
chromatographic logP [1, 5]: 0.95
Compound: CC(=O)NS(=O)(=O)c1cccc(Br)n1 [XIV-2, N-[(6-Bromopyridin-2-yl)sulphonyl]acetamide]

chromatographic logP ([1]; pH 3.4, log P (HCOOH)): 2.37
Compound: COC(=O)c1cccc(-c2cnc(-c3cncc(F)c3)s2)n1 [Methyl 6-[2-(5-fluoropyridin-3-yl)-1,3-thiazol-5-yl]pyridine-2-carboxylate]

chromatographic logP [1, 6]: 2.51
Compound: N#Cc1cccc(-c2cnc(-c3cncc(F)c3)s2)n1 [6-[2-(5-Fluoropyridin-3-yl)-1,3-thiazol-5-yl]pyridine-2-carbonitrile]

chromatographic logP ([1]; pH 3.4, log P (HCOOH)): 3.7
Compound: CCOC(=O)c1cc(-c2sc(-c3cncc(F)c3)nc2C)nn1C [Ethyl 3-[2-(5-fluoropyridin-3-yl)-4-methyl-1,3-thiazol-5-yl]-1-methyl-1H-pyrazole-5-carboxylate]

chromatographic logP [1, 5]: 2.4
Compound: O=C(NS(=O)(=O)Cc1ccccc1)c1cccc(Br)n1 [XII-1]
